According to patent US9808448B2, “Pharmaceutical compounds and use of same in cancer and tauopathies” (THE REGENTS OF THE UNIVERSITY OF MICHIGAN, priority 2013, dated 2017):

System: MDA-MB-231
Experiment: Cancer activity screen (MTT cell survival), MDA-MB-231
Format: cell-based
Settings: Homo sapiens, second table

| SMILES | IC50 [µM] |
| --- | --- |
| CCn1c(=O)/c(=C2\Sc3c(C)cccc3N2C)s/c1=C\c1scc[n+]1Cc1ccccc1 | 0.25 ± 0.03 |
| CN1/C(=c2\s/c(=C\c3ccncc3)n(CC(=O)O)c2=O)Sc2cccc(F)c21 | > 20 |
| CCn1c(=O)/c(=C2\Sc3cc(Cl)ccc3N2C)s/c1=C\c1scc[n+]1Cc1cccc(C(F)(F)F)c1 | 0.4 ± 0.04 |
| CCn1c(=O)/c(=C2\Sc3cc(C(F)(F)F)ccc3N2C)s/c1=C\c1nccs1 | 2.6 ± 0.5 |
| COC(=O)Cn1c(=O)/c(=C2\Sc3cc(C(F)(F)F)ccc3N2C)s/c1=C\c1cccc[n+]1C | > 20 |
| COC(=O)CCn1c(=O)/c(=C2\Sc3cc(F)ccc3N2C)s/c1=C\c1scc[n+]1Cc1ccccc1 | 0.96 ± 0.07 |
| CCn1c(=O)/c(=C2\Sc3ccc(Cl)cc3N2C)s/c1=C\c1scc[n+]1C | 3.1 ± 0.4 |
| COC(=O)Cn1c(=O)/c(=C2\Sc3c(F)cccc3N2C)s/c1=C\c1ccccn1 | > 20 |
| CCn1c(=O)/c(=C2\Sc3ccc(Cl)cc3N2C)s/c1=C\c1scc[n+]1Cc1ccccc1C(F)(F)F | 0.25 ± 0.03 |
| CCn1c(=O)/c(=C2\Sc3cc(F)ccc3N2C)s/c1=C\c1scc[n+]1Cc1ccccc1C(F)(F)F | 0.21 ± 0.03 |
| COC(=O)Cn1c(=O)/c(=C2\Sc3c(F)cccc3N2C)s/c1=C\c1ccncc1 | > 20 |
| CCn1c(=O)/c(=C2\Sc3cc(Cl)ccc3N2C)s/c1=C\c1scc[n+]1Cc1csc(C)n1 | 0.74 ± 0.07 |
| CCn1c(=O)/c(=C2\Sc3cc(C)ccc3N2C)s/c1=C\c1scc[n+]1Cc1ccccc1 | 0.041 ± 0.006 |
| COC(=O)Cn1c(=O)/c(=C2\Sc3cc(C(F)(F)F)ccc3N2C)s/c1=C\c1scc[n+]1Cc1ccccc1 | 2.1 ± 0.4 |
| CCn1c(=O)/c(=C2\Sc3ccc(Cl)cc3N2C)s/c1=C\c1scc[n+]1Cc1ccsc1 | 0.44 ± 0.05 |
| CCn1c(=O)/c(=C2\Sc3ccc(Cl)cc3N2C)s/c1=C\c1scc[n+]1Cc1cc(-c2ccccc2)no1 | 0.5 ± 0.04 |
| COC(=O)Cn1c(=O)/c(=C2\Sc3cc(Cl)ccc3N2C)s/c1=C\c1scc[n+]1Cc1ccccc1 | > 20 |
| CCn1c(=O)/c(=C2\Sc3c(ccc(F)c3F)N2C)s/c1=C\c1scc[n+]1Cc1ccccc1 | 0.24 ± 0.01 |

| SMILES | IC50 [µM] |
| --- | --- |
| CCn1c(=O)/c(=C2\Sc3cc(C(F)(F)F)ccc3N2C)s/c1=C\c1scc[n+]1C | 8.5 ± 1 |
| CCn1c(=O)/c(=C2\Sc3cc(Cl)ccc3N2C)s/c1=C\c1scc[n+]1Cc1ccccc1C(F)(F)F | 0.13 ± 0.01 |
| COC(=O)Cn1c(=O)/c(=C2\Sc3cc(F)ccc3N2C)s/c1=C\c1ccccn1 | > 20 |
| CCn1c(=O)/c(=C2\Sc3cc(OC(F)(F)F)ccc3N2C)s/c1=C\c1scc[n+]1Cc1ccc(C(F)(F)F)o1 | 0.51 ± 0.03 |
| CCn1c(=O)/c(=C2\Sc3cc(C(F)(F)F)ccc3N2C)s/c1=C\c1ccncc1 | > 20 |
| CCn1c(=O)/c(=C2\Sc3cc(Cl)ccc3N2C)s/c1=C\c1scc[n+]1Cc1ccc(C(F)(F)F)o1 | 0.12 ± 0.02 |
| CCn1c(=O)/c(=C2\Sc3ccc(Cl)cc3N2C)s/c1=C\c1cccc[n+]1Cc1ccccc1 | 0.34 ± 0.03 |
| CCn1c(=O)/c(=C2\Sc3cc(Cl)ccc3N2C)s/c1=C\c1scc[n+]1Cc1ccc([N+](=O)[O-])o1 | > 30 |
| CCn1c(=O)/c(=C2\Sc3cc(OC(F)(F)F)ccc3N2C)s/c1=C\c1cccc[n+]1Cc1ccccc1 | 0.71 ± 0.12 |
| CCn1c(=O)/c(=C2\Sc3c(ccc(F)c3F)N2C)s/c1=C\c1scc[n+]1Cc1ccsc1 | 0.81 ± 0.06 |
| CCn1c(=O)/c(=C2\Sc3cc(Cl)ccc3N2C)s/c1=C\c1scc[n+]1Cc1ccsc1Br | 0.2 ± 0.02 |
| CCn1c(=O)/c(=C2\Sc3c(ccc(F)c3F)N2C)s/c1=C\c1scc[n+]1Cc1ccsc1C(=O)OC | 0.21 ± 0.03 |
| COC(=O)Cn1c(=O)/c(=C2\Sc3cccc(F)c3N2C)s/c1=C\c1ccccn1 | > 20 |
| CCn1c(=O)/c(=C2\Sc3c(ccc(F)c3F)N2C)s/c1=C\c1scc[n+]1Cc1ccc(C(F)(F)F)o1 | 0.51 ± 0.05 |
| CCn1c(=O)/c(=C2\Sc3cc(Cl)ccc3N2C)s/c1=C\c1scc[n+]1Cc1cc(C)on1 | 0.22 ± 0.02 |
| CN1/C(=c2\s/c(=C\c3scc[n+]3Cc3ccccc3)n(C3CC3)c2=O)Sc2cc(Cl)ccc21 | 0.56 ± 0.08 |
| CCn1c(=O)/c(=C2\Sc3c(ccc(F)c3F)N2C)s/c1=C\c1scc[n+]1Cc1cc(C)on1 | 1.33 ± 0.11 |
